The results in this text go back to patent US20250145585A1, “HETEROCYCLIC INHIBITORS OF IGF-1R FOR TREATMENT OF DISEASE” (HORIZON THERAPEUTICS IRELAND DAC, priority 2023, published 2025).

By IC50 is commonly meant the concentration that inhibits the measured activity by half.

Molecules are shown by their SMILES.

In the assay the target is T1, IGF-1R (Homo sapiens, UniProt P08069).
T1 construct: expressed in transfected cells
Description: Example B-1: IGF-1R Assay (PC3 cells stimulated with IGF1, AlphaLISA on cell lysates). The following applies: compound two hours, IGF1 200 ng/mL for 30 min, read-out: IC50, Biological Activity against IGF-1R (Table B1). The class given is cell-based. The protocol:
50K PC3 cells were seeded on day 1 in 50 μL of media in 96-well plate and incubated overnight at 37° C., 5% CO2. On day 2, all cells were expected to be at 80-90% confluency. Cells were starved for two hours by changing the media to 90 μL of EMEM serum-free media and incubated for 2 hours. Next, cells were treated with 10 μL of 10× concentrated and 3× serially diluted compounds for two hours. It makes 1× of compounds in 100 μL media. This was followed by stimulation of cells with 11×IGF1 for 30 min in 10 μL of serum-free EMEM media at the final concentration of 200 ng/mL.
The media was removed and replaced by 50 μL of 1× lysis buffer from the AlphaLISA kit (with 1× of cOmplete™ protease inhibitor). The plates were sealed, and cells were allowed to lyse for 10 min in the shaker before storing the plate at −20° C. until used. The AlphaLISA assay with processed cell lysates were performed as described in the protocol. Briefly, 10 μL of the undiluted sample were loaded to 384 well Optiplates and 5 μL of the acceptor mix (as described in the AlphaLISA kit) was added to each well. The plates were sealed and briefly vortexed followed by the incubation at RT for 3 hours. In the dark, 5 μL of donor mix was added to each well. All plates were sealed and stored at RT overnight. The plates were read in EnVision reader using standard AlphaLISA settings.
Compound activity was analyzed using CBIS data analysis suite (Cheminnovation, CA). Percentage inhibition was calculated using the following formula: % I-hibition=100%×(1−(mea−RLU of test sample−mean RLU of vehicle control)/(mean-RLU of EC80 control−mean RLU of vehicle control)). The activity for representative examples of the invention is shown in the following table, wherein A: IC50≤500 nM; B: 500 nM<IC50≤2 μM; C: 2 μM<IC50≤10 μM; D: IC50>10 μM.

T1 sequence (P08069 31-1367): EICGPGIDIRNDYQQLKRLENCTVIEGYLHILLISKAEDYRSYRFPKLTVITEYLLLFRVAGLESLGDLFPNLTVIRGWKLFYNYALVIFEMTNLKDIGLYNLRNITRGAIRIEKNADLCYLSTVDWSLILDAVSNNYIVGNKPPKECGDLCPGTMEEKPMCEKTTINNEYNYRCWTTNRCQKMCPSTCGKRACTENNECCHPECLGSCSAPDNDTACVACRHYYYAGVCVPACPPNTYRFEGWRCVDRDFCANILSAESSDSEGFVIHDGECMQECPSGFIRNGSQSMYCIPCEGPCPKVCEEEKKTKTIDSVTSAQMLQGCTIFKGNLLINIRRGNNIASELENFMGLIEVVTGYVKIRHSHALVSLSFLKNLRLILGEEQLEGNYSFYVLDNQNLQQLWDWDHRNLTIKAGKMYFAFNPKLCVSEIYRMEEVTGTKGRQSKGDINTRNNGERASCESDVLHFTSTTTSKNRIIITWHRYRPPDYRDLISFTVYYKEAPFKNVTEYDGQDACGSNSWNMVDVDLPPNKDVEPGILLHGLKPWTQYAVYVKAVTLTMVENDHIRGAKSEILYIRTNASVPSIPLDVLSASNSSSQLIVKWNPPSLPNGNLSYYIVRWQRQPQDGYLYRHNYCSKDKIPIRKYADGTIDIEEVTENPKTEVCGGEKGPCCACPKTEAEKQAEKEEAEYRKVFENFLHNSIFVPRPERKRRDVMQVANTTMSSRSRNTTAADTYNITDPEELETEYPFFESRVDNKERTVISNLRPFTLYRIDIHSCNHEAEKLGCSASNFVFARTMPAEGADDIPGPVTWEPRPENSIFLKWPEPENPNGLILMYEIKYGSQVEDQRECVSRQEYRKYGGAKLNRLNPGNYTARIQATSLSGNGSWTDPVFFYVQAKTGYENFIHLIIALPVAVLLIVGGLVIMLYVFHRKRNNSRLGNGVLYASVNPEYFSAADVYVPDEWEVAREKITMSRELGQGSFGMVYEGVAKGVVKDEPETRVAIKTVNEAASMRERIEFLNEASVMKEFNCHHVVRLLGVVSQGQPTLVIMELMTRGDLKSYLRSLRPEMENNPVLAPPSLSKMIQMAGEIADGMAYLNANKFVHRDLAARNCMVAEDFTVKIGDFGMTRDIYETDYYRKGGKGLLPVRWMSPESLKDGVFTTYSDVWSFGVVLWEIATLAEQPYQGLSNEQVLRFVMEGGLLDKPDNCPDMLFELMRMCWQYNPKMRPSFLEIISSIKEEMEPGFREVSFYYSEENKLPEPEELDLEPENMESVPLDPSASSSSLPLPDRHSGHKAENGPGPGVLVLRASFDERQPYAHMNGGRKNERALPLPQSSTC

For `CSc1ccc(N2C(=O)N(Cc3ccnc(N)c3)C(C)(C)C2=O)cc1` [Compound 395, 1-((2-aminopyridin-4-yl)methyl)-5,5-dimethyl-3-(4-(methylthio)phenyl)imidazolidine-2,4-dione], the IC50 lay in the range of 2 to 10 µM.

Regarding `CC(C)Nc1cc(CN2C(=O)N(c3ccc(SC(F)(F)F)cc3)C(=O)C2(C)C)cc(F)n1` [Compound 383, 1-((2-fluoro-6-(isopropylamino)pyridin-4-yl)methyl)-5,5-dimethyl-3-(4-((trifluoromethyl)thio)phenyl) imidazolidine-2,4-dione], the IC50 was in the range of 2 to 10 µM.

Take `CC(C)Nc1cc(CN2C(=O)N(c3ccc(SC(F)(F)F)cc3)C(=O)C2(C)C)ncn1` [Compound 379, 1-((6-(isopropylamino)pyrimidin-4-yl)methyl)-5,5-dimethyl-3-(4-((trifluoromethyl)thio)phenyl) imidazolidine-2,4-dione]: the IC50 was 0.5 to 2 µM.

As to `CC1(C)C(=O)N(c2ccc(C#N)cc2)C(=O)N1Cc1ccnc(N)c1` [Compound 80, 4-(3-((2-aminopyridin-4-yl)methyl)-4,4-dimethyl-2,5-dioxoimidazolidin-1-yl)benzonitrile], the concentration for half-maximal inhibition (IC50) was in the range of 0.5 to 2 µM.

As for `CC1(C)C(=O)N(c2ccc(SC(F)(F)F)cc2)C(=O)N1Cc1ccnc(NC(=O)C2NCC23CCCCC3)c1` (stereo not drawn) [Compound 305, N-(4-((5,5-dimethyl-2,4-dioxo-3-(4-((trifluoromethyl)thio)phenyl)imidazolidin-1-yl)methyl)pyridin-2-yl)-2-azaspiro[3.5]nonane-1-carboxamide], the IC50 fell in the range of 2 to 10 µM.

As to `CC(C)Nc1cc(CN2C(=O)N(c3ccc([Si](C)(C)C)cc3)C(=O)C2(C)C)ccn1` [Compound 89, 1-((2-(isopropylamino)pyridin-4-yl)methyl)-5,5-dimethyl-3-(4-(trimethylsilyl)phenyl)imidazolidine-2,4-dione], the IC50 is not above 0.5 µM.

Consider `CC1(C)C(=O)N(c2ccc(SC(F)(F)F)cc2)C(=O)N1Cc1ccnc2[nH]c(C3CC3)cc12` [Compound 15, 1-((2-cyclopropyl-1H-pyrrolo[2,3-b]pyridin-4-yl)methyl)-5,5-dimethyl-3-(4-((trifluoromethyl)thio)phenyl)imidazolidine-2,4-dione], for which the IC50 is more than 10 µM.

Regarding `COc1cccc(NC(=O)Nc2cc(CN3C(=O)N(c4ccc(SC(F)(F)F)cc4)C(=O)C3(C)C)ccn2)c1` [Compound 364, 1-(4-((5,5-dimethyl-2,4-dioxo-3-(4-((trifluoromethyl)thio)phenyl)imidazolidin-1-yl)methyl)pyridin-2-yl)-3-(3-methoxyphenyl)urea], the 50% inhibitory concentration (IC50) is not above 0.5 µM.

In the case of `CC1(C)C(=O)N(c2ccc(SC(F)(F)F)cc2)C(=O)N1Cc1ccnc(NC(=O)Nc2ccncc2)c1` [Compound 398, 1-(4-((5,5-dimethyl-2,4-dioxo-3-(4-((trifluoromethyl)thio)phenyl)imidazolidin-1-yl)methyl)pyridin-2-yl)-3-(pyridin-4-yl)urea], the IC50 was not above 0.5 µM.

For the compound `CC1(C)C(=O)N(c2ccc(SC(F)(F)F)cc2)C(=O)N1Cc1ccnc(NC(=O)Nc2cccnc2)c1` [Compound 397, 1-(4-((5,5-dimethyl-2,4-dioxo-3-(4-((trifluoromethyl)thio)phenyl)imidazolidin-1-yl)methyl)pyridin-2-yl)-3-(pyridin-3-yl)urea], the IC50 is not above 0.5 µM.

Turning to `CC1(C)C(=O)N(c2ccc(SC(F)(F)F)cc2)C(=O)N1CCc1cn[nH]c1` [Compound 400, 1-(2-(1H-pyrazol-4-yl)ethyl)-5,5-dimethyl-3-(4-((trifluoromethyl)thio)phenyl) imidazolidine-2,4-dione], the IC50 fell in the range of 2 to 10 µM.

For the compound `CC1(C)C(=O)N(c2ccc(SC(F)(F)F)cc2)C(=O)N1Cc1ccnc(NC(=O)Nc2ccccc2F)c1` [Compound 375, 1-(4-((5,5-dimethyl-2,4-dioxo-3-(4-((trifluoromethyl)thio)phenyl)imidazolidin-1-yl)methyl)pyridin-2-yl)-3-(2-fluorophenyl)urea], the IC50 was not above 0.5 µM.

In the case of `CN1CC(Oc2ccc(Nc3cc(CN4C(=O)N(c5ccc(SC(F)(F)F)cc5)C(=O)C4(C)C)ccn3)cc2)C1` [Compound 349, 5,5-dimethyl-1-((2-((4-((1-methylazetidin-3-yl)oxy)phenyl)amino)pyridin-4-yl)methyl)-3-(4-((trifluoromethyl)thio)phenyl) imidazolidine-2,4-dione], the IC50 is not above 0.5 µM.

For `Nc1cc(CN2C(=O)N(c3ccc(SC(F)(F)F)cc3)C(=O)C23CCC3)ccn1` [Compound 292, 5-((2-aminopyridin-4-yl)methyl)-7-(4-((trifluoromethyl)thio)phenyl)-5,7-diazaspiro[3.4]octane-6,8-dione], the IC50 was 0.5 to 2 µM.

For the compound `CC1(C)C(=O)N(c2ccc(C3(C(F)(F)F)CC3)cc2)C(=O)N1Cc1ccnc(NCC(F)F)c1` [Compound 103, 1-((2-((2,2-difluoroethyl)amino)pyridin-4-yl)methyl)-5,5-dimethyl-3-(4-(1-(trifluoromethyl)cyclopropyl)phenyl) imidazolidine-2,4-dione], the 50% inhibitory concentration (IC50) is not above 0.5 µM.

For `CC(C)(C)c1ccc(N2C(=O)N(Cc3ccnc(-c4ccccc4)c3)C(C)(C)C2=O)cc1` [Compound 346, 3-(4-(tert-butyl)phenyl)-5,5-dimethyl-1-((2-phenylpyridin-4-yl)methyl)imidazoline-2,4-dione], the IC50 fell in the range of 0.5 to 2 µM.

`CC1(C)C(=O)N(c2ccc(C3(C(F)(F)F)CC3)cc2)C(=O)N1Cc1ccnc(N)c1` [Compound 83, 1-((2-aminopyridin-4-yl)methyl)-5,5-dimethyl-3-(4-(1-(trifluoromethyl)cyclopropyl)phenyl)imidazolidine-2,4-dione]: the concentration for half-maximal inhibition (IC50) is not above 0.5 µM.

On to `CC(C)(C)c1ccc(N2C(=O)N(Cc3ccnc(-c4ccn[nH]4)c3)C(C)(C)C2=O)cc1` [Compound 347, 1-((2-(1H-pyrazol-5-yl)pyridin-4-yl)methyl)-3-(4-(tert-butyl)phenyl)-5,5-dimethylimidazoline-2,4-dione], for which the IC50 was not above 0.5 µM.

Regarding `COCC(C)Nc1cc(CN2C(=O)N(c3ccc(C(C)(C)C)cc3)C(=O)C2(C)C)ccn1` (stereo not drawn) [Compound 265, 3-(4-(tert-butyl)phenyl)-1-((2-((1-methoxypropan-2-yl)amino)pyridin-4-yl)methyl)-5,5-dimethylimidazolidine-2,4-dione], the IC50 was not above 0.5 µM.

In the case of `CC1(C)C(=O)N(c2ccc(SC(F)(F)F)cc2)C(=O)N1Cc1ccnc(NC2CCC2)c1` [Compound 378, 1-((2-(cyclobutylamino)pyridin-4-yl)methyl)-5,5-dimethyl-3-(4-((trifluoromethyl)thio)phenyl) imidazolidine-2,4-dione], the IC50 is not above 0.5 µM.

As for `CC1(C)C(=O)N(c2ccc(SC(F)(F)F)cc2)C(=O)N1Cc1ccnc(Nc2ncc[nH]2)c1` [Compound 352, 1-((2-((1H-imidazol-2-yl)amino)pyridin-4-yl)methyl)-5,5-dimethyl-3-(4-((trifluoromethyl)thio)phenyl) imidazolidine-2,4-dione], the IC50 was not above 0.5 µM.

Turning to `Nc1cc(CN2C(=O)N(c3ccc(SC(F)(F)F)cc3)C(=O)[C@@H]2c2ccccc2)ccn1` [Compound 294, (S)-1-((2-aminopyridin-4-yl)methyl)-5-phenyl-3-(4-((trifluoromethyl)thio)phenyl)imidazolidine-2,4-dione], the IC50 is more than 10 µM.

Turning to `CC(C)Nc1cc(CN2C(=O)N(c3ccc([C@H]4C[C@@H]4F)cc3)C(=O)C2(C)C)ccn1` [Compound 96, 3-(4-((1R,2S)-2-fluorocyclopropyl)phenyl)-1-((2-(isopropylamino)pyridin-4-yl)methyl)-5,5-dimethylimidazolidine-2,4-dione], the IC50 was 0.5 to 2 µM.

Take `CC(C)(C)c1ccc(N2C(=O)N(Cc3ccnc(NC4(CO)CC4)c3)C(C)(C)C2=O)cc1` [Compound 271, 3-(4-(tert-butyl)phenyl)-1-((2-((1-(hydroxymethyl)cyclopropyl)amino)pyridin-4-yl)methyl)-5,5-dimethylimidazolidine-2,4-dione]: the IC50 fell in the range of 0.5 to 2 µM.

On to `CC(C)C#Cc1cc(CN2C(=O)N(c3ccc(SC(F)(F)F)cc3)C(=O)C2(C)C)cnc1N` [Compound 385, 1-((6-amino-5-(3-methylbut-1-yn-1-yl)pyridin-3-yl)methyl)-5,5-dimethyl-3-(4-((trifluoromethyl)thio)phenyl) imidazolidine-2,4-dione], for which the IC50 was 0.5 to 2 µM.

Consider `CC(C)Nc1cc(CN2C(=O)N(c3ccc(C4(C)CCC4)cc3)C(=O)C2(C)C)ccn1` [Compound 101, 1-((2-(isopropylamino)pyridin-4-yl)methyl)-5,5-dimethyl-3-(4-(1-methylcyclobutyl)phenyl)imidazolidine-2,4-dione], for which the IC50 is not above 0.5 µM.

In the case of `CC1(Nc2cc(CN3C(=O)N(c4ccc(C(C)(C)C)cc4)C(=O)C3(C)C)ccn2)CC1` [Compound 273, 3-(4-(tert-butyl)phenyl)-5,5-dimethyl-1-((2-((1-methylcyclopropyl)amino)pyridin-4-yl)methyl) imidazolidine-2,4-dione], the IC50 was not above 0.5 µM.
